pEC50, pIC50: −log10 of the molar value. Active and inactive are the calls of the source.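 The calls were made as follows: active = compounds giving half or more protection of infected cells from virus-caused growth loss, again on retest; inactive = the rest.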 Where a SMILES comes first, the peptide text is derived from it. [ ]: non-standard residue; d: D form. The star is where a group is joined. NMeF = CN[CH](Cc1ccccc1)C(=O)O; NMeV = CN[CH](C(=O)O)C(C)C; Cbz = O=C(OCc1ccccc1)*; Boc = CC(C)(C)OC(=O)*
Test system: CEM cells HIV-1 protection, formazan growth assay
Test: NCI AIDS Antiviral Assay
Details: for pIC50: measured here: growth of uninfected CEM cells
Summary of the method: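 Category rules: moderately active means at least 50% protection on retest, and confirmed active means 100% protection reproducibly. The underlying data came from a formazan growth assay in HIV-1-infected CEM cells.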

Row | SMILES | outcome | pEC50 | pIC50
1 | CCOC(=O)C(=O)Nc1nc2ccc(C)cc2s1 | inactive |  | 
2 | CC(C)(C)C1COP(=S)(c2ccccc2)OC1 (stereo not drawn) |  | < 4.16 | < 4.16
3 | COCCN1C(=O)C(NC(C)=O)C1COC(C)(C)C (stereo not drawn) |  | < 3.04 | < 3.04
4 | C(=C\c1ccccc1)/Cn1nc(-c2ccccc2)nc1-c1cnccn1 |  | 3.84 | < 3.70
5 | Cc1ccc2c(c1)C1(C)OC(CC(N)C1O)O2 (stereo not drawn) | inactive |  | 
6 | Cn1c(=Nc2ccc(Cl)cc2)sc2ccccc21 |  | < 3.70 | 4.49
7 | CCNCCNC(=O)c1ccc(I)cc1 | inactive |  | 
8 | CCOP(=O)(OCC)/C(=C/NC(=S)c1cccnc1)C(=O)OC |  | < 3.70 | 4.46
9 | O=c1ccn2c(n1)OC1C(O)C(CO)OC12 (stereo not drawn) |  | < 3.70 | < 3.70
10 | O=S1c2ccc(Cl)cc2CC(SSC2Cc3cc(Cl)ccc3S(=O)c3ccccc32)c2ccccc21 (stereo not drawn) |  | < 5.33 | < 5.33
11 | COC1(OC)C2C=CC1C([C@](C)(N)CO)C2 (stereo partly drawn) |  | < 2.96 | < 2.96
12 | O=C1CCC2(CC1CC(Sc1ccccc1)Sc1ccccc1)OCCO2 (stereo not drawn) |  | < 3.70 | 4.38
13 | COc1ccccc1C1c2cc3c(cc2OC(N2CCOCC2)C1C)OCO3 (stereo not drawn) |  | < 3.70 | 4.80
14 | OCC(O)CNc1ccnc2cc(Cl)ccc12 (stereo not drawn) |  | < 3.20 | 3.93
15 | COS(=O)CCOC(=O)c1ccccc1SSc1ccccc1C(=O)OCCS(=O)OC (stereo not drawn) |  | 3.95 | < 3.70
16 | O=C(/C=C\c1cccc(O)c1)/C=C/c1cccc(O)c1 |  | 3.97 | 3.95
17 | CCCCn1[nH]c(=O)ccc1=O |  | < 2.83 | 2.85
18 | c1cncc(C2N3CCCCC3[C@@H]3c4[nH]c5ccccc5c4CCN23)c1 (stereo partly drawn) |  | < 4.01 | < 4.01
19 | CC(C)C(NC(=O)OC(C)(C)C)C(=O)N(C)C(Cc1ccccc1)C(=O)N(C)C(C(=O)O)C(C)C (stereo not drawn) (Boc-Val-[NMeF]-[NMeV]-OH; configuration not given here) |  | < 3.70 | < 3.70
20 | COC1/C=C\OC2(C)Oc3c(C)c(O)c4c(O)c(c(/C=N\OC(C(=O)O)C(C)C)c(O)c4c3C2=O)NC(=O)/C(C)=C\C=C/C(C)C(O)C(C)C(O)C(C)C(OC(C)=O)C1C (stereo not drawn) |  | < 4.00 | 4.39
21 | CCOC(=O)CCC(NC(=O)C(CC(=O)OC)NC(=O)C(CC(=O)OC)NC(=O)C(CC(=O)OC)NC(=O)C(CC(=O)OC)NC(=O)OCc1ccccc1)C(=O)NC(CCC(=O)OCC)C(=O)NC(CCC(=O)OCC)C(=O)OCC (stereo not drawn) (Cbz-D(OMe)D(OMe)D(OMe)D(OMe)E(OEt)E(OEt)E(OEt)-OEt; configuration not given here) |  | < 4.30 | < 4.30
22 | CCc1cc(C(=O)OC)cn1C(=N)c1ccc(Cl)cc1 |  | < 3.07 | < 3.07

Row | SMILES | outcome | pEC50 | pIC50
23 | CCC(C)C(NC(=O)C(CCCN=C(N)N)NC(=O)C(CC(N)=O)NC(=O)C(Cc1ccc(O)cc1)NC(=O)C(N)CC(C)C)C(=O)NC(C(=O)NC(CC(C)C)C(=O)NC(CCCN=C(N)N)C(=O)NC(Cc1ccc(O)cc1)C(=O)O)C(C)CC (stereo not drawn) (H-LYNRIILRY-OH; configuration not given here) |  | < 4.39 | 4.63
24 | N#C/C(=C/N1C(=O)/C(=C/c2ccc([N+](=O)[O-])cc2)SC1=S)c1nc2ccccc2s1 |  | < 3.70 | 4.81
25 | CCOC(=O)COc1ccc2c(C)c(CCN(CC)CC)c(=O)oc2c1 |  | < 3.20 | < 3.20
26 | C=CCC1([C@H](C)[C@@H](OC(C)=O)c2cc(OC)c(OC)c(OC)c2)C[C@@H](OC)CCC1=O (stereo partly drawn) |  | < 3.94 | 5.22
27 | C[S+](C)CCS(=O)(=O)[O-] |  | < 3.70 | < 3.70
28 | COC(=O)N1CCC(Sc2ccccc2)C2(CCSc3ccccc3)CCC=C12 (stereo not drawn) |  | < 4.91 | < 4.91
29 | COc1cc2c(cc1OC)[C@@H](C(O)c1ccccc1)NCC2 (stereo partly drawn) | inactive |  | 
30 | O=c1c(O)c(-c2cc(O)c(O)cc2O)oc2cc(O)c(C3OC(CO)C(O)C(O)C3O)c(O)c12 (stereo not drawn) |  | < 3.70 | 3.86
31 | O=c1oc2cccnc2n1CCN1CCN(c2ccc(Oc3ccccc3)cc2)CC1 |  | < 3.70 | 4.28
32 | CON[N+]([O-])=NC(C)C |  | 3.71 | < 3.70
33 | CCOC(=O)N[C@@H]1C2CC(=O)C(O2)[C@@H]1OC (stereo partly drawn) | inactive |  | 
34 | Cc1[nH]c2c(C)cccc2c1C1Cc2ccccc2N1 (stereo not drawn) | inactive |  | 
35 | Cc1c(-c2ccccc2)nn2cc(-c3ccccc3)nnc12 |  | < 3.70 | 4.96
36 | COC(=O)C1CC2(CCC1=O)Cc1ccccc1C2=O (stereo not drawn) |  | < 3.70 | 4.14
37 | CCN(CC)c1ccc(N=Nc2ccc(-c3nc4cccnc4o3)cc2)cc1 |  | < 4.71 | < 4.71
38 | COc1ccc2c(c1)CC1=C(O2)c2ccc(OC)cc2OC1 |  | < 3.70 | 4.99
39 | Cc1ccc(/C=N/n2c(Cc3ccccc3)n[nH]c2=O)cc1 |  | < 3.70 | < 3.70
40 | COc1cc(O)c2c(=O)c(OC)c(-c3ccc(OC)c(OC)c3)oc2c1 | inactive |  | 
41 | OC(c1ccccc1)c1cccc(C(O)c2ccccc2)c1 (stereo not drawn) |  | < 3.91 | < 3.91
42 | Cc1ccc2nc(-c3ccccc3Cl)[nH]c2c1 |  | 4.83 | 4.53
43 | O=C(O)c1ccc(/C=N\N(CCO)C2=NCCN2)cc1 |  | < 3.70 | < 3.70
44 | COC(CN(C)C(=S)Nc1cccc2ccccc12)OC |  | < 3.70 | 4.10

Row | SMILES | outcome | pEC50 | pIC50
45 | COC(=O)c1sc(C(=O)OC)c2c1CS(=O)C2 | inactive |  | 
46 | CNc1ncnc2c1ncn2C1OC(CO)CC1F (stereo not drawn) |  | 3.80 | < 3.70
47 | C[Si]1(C)[Si](C)(C)[Si](C)(C)[Si](C)(C)[Si](C)(C)[Si]1(C)C |  | < 4.54 | < 4.54
48 | Cc1ccc(NC(=O)CC/C(CC(=O)C(C)(C)C)=N/NC(=O)c2cc3ccccc3cc2O)cc1C |  | < 4.69 | < 4.69
49 | c1ccc(COc2ccc(C[P+](c3ccccc3)(c3ccccc3)c3ccccc3)cc2)cc1 |  | < 4.70 | 6.49
50 | Cc1cccc(C(C)(C)C)c1NC(=O)CC1C(=O)Nc2ccccc2S1(=O)=O (stereo not drawn) |  | < 5.73 | < 5.73
51 | O=S(=O)(O)c1cc(O)c2c(N=Nc3ccc(Nc4ccccc4)c4c(S(=O)(=O)O)cccc34)cc(S(=O)(=O)O)cc2c1 |  | 3.95 | < 3.70
52 | Cc1cc(NS(=O)(=O)c2ccc(NC(=O)c3cccc4c(Nc5ccc(S(=O)(=O)Nc6cc(C)on6)cc5)c5ccccc5nc34)cc2)no1 |  | < 4.44 | < 4.44
53 | CN1c2ccccc2Sc2c1n[nH]c2-c1ccccc1 |  | < 4.31 | 4.68
54 | CC1=Nc2ccccc2S/C1=C1/C=NC(=NC#N)N=C1C(=O)Nc1cccc(Cl)c1 |  | < 4.08 | < 4.08
55 | CCN(CC)CCNC(=O)C1COc2ccc(-c3cc(=O)c4ccccc4o3)cc2O1 (stereo not drawn) | inactive |  | 
56 | COc1cc2c3c(c1)ncn3C(=O)CCS2 |  | < 3.70 | < 3.70
57 | Cc1cccc(-c2nc(=S)[nH][nH]2)c1 |  | < 3.02 | 3.38
58 | CCOC(=O)C(C)(NC(=O)c1ccc(NCc2ccc3nc(NC(=O)c4ccccc4)nc(NC(=O)c4ccccc4)c3c2)cc1)C(=O)OCC |  | < 4.30 | 4.49
59 | O=C1OCCSCCOCCSCCOC(=O)c2cccc1n2 | inactive |  | 
60 | NC1=C(O)/C(=N/NS(=O)(=O)c2ccccc2)C(c2ccc3c(c2)OCO3)O1 (stereo not drawn) |  | < 5.43 | < 5.43
61 | N#CC12Cc3cc4c(cc3-c3cccc(c31)CCN2C(=O)c1ccccc1)OCO4 (stereo not drawn) | inactive |  | 
62 | Cc1cc(C)c(C2=NOC(c3ccccc3)(c3cc(=O)n(-c4ccccc4)s3)O2)c(C)c1 (stereo not drawn) |  | 5.07 | 4.42
63 | COc1cc(C(C#N)S(=O)(=O)O)ccc1O (stereo not drawn) |  | < 3.70 | < 3.70
64 | COc1ccc(-n2cc3c(c2)C(=O)OC3=O)cc1OC | inactive |  | 
65 | COc1ccc2nc3ccccc3c(NCCCCCN(C)CCCl)c2c1 | inactive |  | 
66 | Cc1c(NC=C(C#N)C#N)c(=O)n(-c2ccccc2)n1C |  | < 3.70 | < 3.70

Row | SMILES | outcome | pEC50 | pIC50
67 | Nc1ncnc2c1ccn2CC=C(CO)CO |  | < 3.70 | < 3.70
68 | CC1(c2ccc(Cl)cc2)C2C(=O)NC(=O)C1C(=O)NC2=O (stereo not drawn) |  | < 3.09 | 3.31
69 | C/C=C/C=C1\C=Cc2c(C(=O)OC)coc(=O)c21 |  | < 3.70 | 4.45
70 | CCOC(=O)c1nc(-c2ccccc2)c(-c2ccccc2)c(-c2ccccc2)c1C |  | < 5.29 | < 5.29
71 | CCC(C)C(NC(=O)c1ccccc1SC(=O)OCCCC[n+]1ccccc1)C(N)=O (stereo not drawn) | inactive |  | 
72 | NC(=O)N/N=C\CC(O)(C(F)(F)Cl)C(F)(F)Cl |  | < 3.70 | < 3.70
73 | CC1(C)OCC[C@@H]1[Si](C)(C)C | inactive |  | 
74 | CC(=O)c1ccc2c(c1)CC1(C2)Cc2cc3c(cc2C1=O)CCC3 (stereo not drawn) |  | < 3.70 | 4.84
75 | COCOc1c(C(O[Si](C)(C)C(C)(C)C)c2cnc(Sc3ccccc3)n2C)ccc(OC)c1OC (stereo not drawn) |  | < 3.70 | 5.37
76 | CC(C)Cc1cccc(C(C)C)c1NC(=O)CCC(=O)N/N=C1\C(=N/NC(=O)CCC(=O)Nc2c(C(C)C)cccc2C(C)C)C(c2ccc3c(c2)OCO3)Oc2ccccc21 (stereo not drawn) |  | < 3.95 | 4.09
77 | O=S(=O)(O)CCNC(=S)C(=S)NCCS(=O)(=O)O | inactive |  | 
78 | CC(C)(C)C(=O)/C=C/c1cccc(C#N)c1 |  | < 3.91 | 5.18
79 | CCOP(=O)(OCC)/C(C#N)=C/c1cccn1CC(C)C |  | 4.22 | 3.91
80 | CSC1NNC2(C(=O)N1)c1ccccc1-c1ccccc12 (stereo not drawn) |  | < 3.70 | 4.57
81 | C=CC1CN2CCC1C/C2=N\O (stereo not drawn) | inactive |  | 
82 | CC(C)(C)OC(=O)N1CCc2c(n(C/C=C/c3ccccc3)[nH]c2=O)C1 |  | < 3.70 | 4.72
83 | Cc1ccc(O)c(-c2cscn2)c1 |  | < 3.70 | 3.97
84 | CC(=O)OCC12C(=O)C[C@@H](C)C3(CC(c4ccoc4)OC3=O)C1CCC(OC(C)=O)C21CO1 (stereo partly drawn) |  | < 3.70 | 3.87
85 | COC(=O)C1=C(C)N2[C@H](C(=O)O)CS[C@@]2(C)[C@H](C(=O)OC)[C@H]1c1cccc([N+](=O)[O-])c1 |  | < 3.70 | 3.83
